Data reported in patent publication US20240034742A1, “DOSING REGIMENS FOR CYCLIN-DEPENDENT KINASE 7 (CDK7) INHIBITORS” (Syros Pharmaceuticals, Inc., priority 2020, published 2024).

What was measured:
[1] = tested on: HCC70 cell line; assay: Inhibition of cell proliferation (CyQUANT Direct Cell Proliferation Assay); type: cell-based; conditions: Homo sapiens, 72-hour proliferation assay
Experimental: The HCC70 cell line was derived from human TNBC, and we tested representative compounds of the invention, at different concentrations (from […]; 0.5 log serial dilutions), for their ability to inhibit the proliferation of those cells. More specifically, we tested the same compounds tested above for CDK7 selectivity (the structures of which are shown in FIG. 1), and we used the known CDK inhibitors dinaciclib (or N-((1S,3R)-3-((5-chloro-4-(1H-indol-3-yl) pyrimidin-2-yl)amino)cyclohexyl)-5-((E)-4-(dimethylamino)but-2-enamido)picolinamide) and triptolide as positive controls. The cells were grown in ATCC-formulated RPMI-1640 medium (ATCC 30-2001) supplemented with 10% fetal bovine serum (FBS), at 37° C. in a humidified chamber in the presence of 5% CO2. We conducted proliferation assays over a 72-hour time period using a CyQUANT® Direct Cell Proliferation Assay (Life Technologies, Chicago, IL USA) according to the manufacturer's directions and utilizing the reagents supplied with the kit.

[2] = tested on: PDX models with oncogenic alterations in the RB pathway and MAPK pathway; assay: Anti-tumor activity in PDX models with RB or MAPK pathway alterations; type: in vivo; conditions: well-tolerated doses; models from SCLC, TNBC, HGSOC, CRC, PDAC, NSCLC patients
[3] = tested on: patients with advanced solid tumors; assay: Phase 1, first-in-human dose escalation study
Experimental: We focused on safety, tolerability, PK, and PD (as assessed by a PD gene expression marker, POLR2A mRNA) in a 28-day single agent continuous daily dosing regimen and a 3-week-on, I-week-off combination regimen with fulvestrant.
Safety and tolerability, including cycle-1 dose-limiting toxicities (DLTs) were evaluated. Dose-limiting toxicities were graded using the National Cancer Institute Common Toxicity Criteria for Adverse Events (NCI-CTCAE) version 5.0. Serial plasma PK and PD in peripheral blood mononuclear cells (PBMCs) were obtained on days 1 and 15 in cycle 1. […] Tumor responses were assessed per RECIST version 1.1.

[4] = tested on: ST390 (modeling pancreatic ductal adenocarcinoma (PDAC)); assay: Tumor growth inhibition in PDAC PDX model ST390; conditions: 6 mg/kg QD PO, over the time examined (~28 days)
Experimental: (§1) In the TNBC, SCLC, and HGSOC models, tumor volume was measured during the treatment period and for an additional 21 days after treatment ceased. […] The same calculations were used for end of study (day 42).

[5] = tested on: 12 PDX models representing SCLC, TNBC and HGSOC; assay: Tumor growth inhibition in TNBC, HGSOC and SCLC PDX models
Experimental: as §1
Dosing was initiated when tumors were 150-300 mm^3. […] TGI was calculated on the last day of dosing using the formula: TGI=(Vc1−Vt1)/(Vc0−Vt0), where Vc1 and Vt1 are the mean volumes of control and treated groups at the time of tumor extraction, while Vc0 and Vt0 are the same groups at the start of dosing.

[6] = tested on: palbociclib and fulvestrant double-resistant ER+BC PDX model (ST941); assay: Tumor growth inhibition in palbociclib and fulvestrant double-resistant ER+BC PDX model ST941; type: in vivo, mice; conditions: last day of 28 days dosing, Compound 101 6 mg/kg QD PO, fulvestrant 2.5 mg/kg weekly SC, palbociclib 50 mpk QD PO
Experimental: Tumor growth inhibition was evaluated in estrogen receptor-positive breast cancer (ER-BC) PDX models selected in vivo for resistance to the CDK4/6 inhibitor palbociclib (ST1799, […]) or resistance to both palbociclib and fulvestrant (ST941, n=1), Dosing was initiated when tumors were 100-200 mm^3.

[7] = single agent and in combination with fulvestrant

Question: Which EC50 [1] does the source give for CC1(C)CC[C@H](Nc2ncc(C(F)(F)F)c(-c3c[nH]c4c(P(C)(C)=O)c(C#N)ccc34)n2)CN1 [Compound 101, (S)-7-(dimethylphosphoryl)-3-(2-((6,6-dimethylpiperidin-3-yl)amino)-5-(trifluoromethyl)pyrimidin-4-yl)-1H-indole-6-carbonitrile] here?
Answer: 3.6 nM

Question: What about the anti-tumor activity [2] of the same molecule?
Answer: robust anti-tumor activity

Question: And the “pharmacodynamics: POLR2A mRNA in PBMCs and CDK7 occupancy” value ([3]; 3 mg daily)?
Answer: induced POLR2A elevations associated with regressions in preclinical models and target levels of CDK7 occupancy in patients

Question: And the dose-limiting events ([3]; cohort receiving 4 mg doses, continuous daily (Grade 3 fatigue; abdominal pain))?
Answer: two

Question: What about the dose-limiting events ([3]; cohort receiving 5 mg doses, continuous daily (Grade 3 nausea; thrombocytopenia)) of the same molecule?
Answer: two

Question: What about the “patients who developed an SAE (all causality)” value ([3]; four of 13 patients) of the same molecule?
Answer: 31%

Question: What about the “grade of the majority of reported adverse events” value ([3]; in vivo) of the same molecule?
Answer: low grade

Question: And the “accumulation with repeated dosing” value [3, 7]?
Answer: minimal accumulation

Question: What about the “dose proportionality of PK” value [3, 7] of the same molecule?
Answer: approximately dose proportional PK

Question: And the “interpatient variability of PK” value [3, 7]?
Answer: moderate to high interpatient variability

Question: And the steady state half-life [3, 7]?
Answer: compatible with once daily dosing

Question: What about the “best response (RECIST 1.1)” value ([3]; single agent, 3 mg daily, two patients (HR+ breast cancer, colorectal cancer)) of the same molecule?
Answer: stable disease

Question: And the “best response (RECIST 1.1)” value ([3]; single agent, 5 mg daily, one patient, esophageal cancer)?
Answer: stable disease

Question: What about the MTD ([3]; single agent, oral, continuous daily dosing cohorts) of the same molecule?
Answer: 3 mg

Question: What about the “response (RECIST 1.1)” value ([3]; single agent, two patients with ovarian cancer, 1 mg and 3 mg daily) of the same molecule?
Answer: progressive disease

Question: And the “Tumor growth inhibition (TGI)” value [4]?
Answer: 100%

Question: What about the “TGI in TNBC (BR5010), SCLC (LU5178) and HGSOC (OV15398) PDX models” value ([5]; 10 mg/kg QD or 5 mg/kg BID (TNBC), 3 mg/kg BID (SCLC, HGSOC), PO, 21 days, plus 21 days observation) of the same molecule?
Answer: deep and sustained TGI, including regressions

Question: And the “TGI at the end of the 21-day dosing period in all models” value ([5]; 12 PDX models, 6 or 10 mg/kg QD or 3 or 5 mg/kg BID PO)?
Answer: at least 50%

Question: What about the “TGI in the subset of models (58%, 7/12) with deep and sustained responses” value ([5]; TGI or regression, no tumor regrowth for 21 days after treatment discontinuation) of the same molecule?
Answer: > 95%

Question: What about the “tolerability: body weight” value ([5]; all once-daily doses tested, tumor-bearing mice) of the same molecule?
Answer: no evident body weight loss

Question: And the MTD ([5]; tumor-bearing mice)?
Answer: above 10 mg/kg once daily

Question: CC(=O)c1c(C)c2cnc(Nc3ccc(N4CCNCC4)cn3)nc2n(C2CCCC2)c1=O [palbociclib] was tested. Which “Tumor growth inhibition (TGI)” value [6] did it give?
Answer: no activity

Question: With C[C@]12CC[C@@H]3c4ccc(O)cc4C[C@@H](CCCCCCCCC[S+]([O-])CCCC(F)(F)C(F)(F)F)[C@H]3[C@@H]1CC[C@@H]2O (some centres unmarked) [fulvestrant] as the molecule, how does the “Tumor growth inhibition (TGI)” value [6] read?
Answer: no activity
